Data published in patent US12227485B2, “Compounds useful for the treatment of infection with Mannheimia haemolytica or Histophilus somni” (Intervet Inc., priority 2018, dated 2025).
In brackets after ≈: the same amount, converted by molar mass.

Experiments:
Mannheimia haemolytica = test: MIC by broth-microdilution method (CLSI VET01-A4), Mannheimia haemolytica strains; type: cell-based; conditions: for MIC MH 6357: Mannheimia haemolytica MH 6357 (M7/2), reference strain (cattle infection strain); for MIC MH 6374: Mannheimia haemolytica MH 6374 (ATCC 33396), reference strain; for MIC MH 10720: Mannheimia haemolytica MH 10720 (154); for MIC MH 10720 / MIC MH 12587 / MIC MH 13093: BRD field isolate; for MIC MH 12587: Mannheimia haemolytica MH 12587 (1071), macrolide-resistance: erm+, E+; for MIC MH 13093: Mannheimia haemolytica MH 13093 (XB0472-6014.1)
Experimental: (§1) For example, representative compounds were tested against Mannheimia haemolytica and Pasteurella multocida, using the conventional broth-dilution assay.
(§2) The Minimum inhibitory concentrations (MIC) of compounds according to the invention for a number of veterinary bacterial pathogens were determined by the broth-microdilution method according to CLSI document VET01-A4.
(§3) Microdilution trays containing a doubling dilution series of the test compound were used for the tests. The MIC results were interpreted according to the CLSI documents VET01-S3. The lowest concentration of compound at which no visible growth (i.e. no turbidity) detected by the unaided eye was recorded as the MIC.

Pasteurella multocida = test: MIC by broth-microdilution method (CLSI VET01-A4), Pasteurella multocida strains; type: cell-based; conditions: for MIC PM 6267: Pasteurella multocida PM 6267 (P 2225 (L386)), reference strain (mouse infection strain); for MIC PM 6391: Pasteurella multocida PM 6391 (ATCC 43137), reference strain; for MIC PM 10775: Pasteurella multocida PM 10775 (080130003051); for MIC PM 10775 / MIC PM 12080: BRD field isolate; for MIC PM 12080: Pasteurella multocida PM 12080 (IV102277-0093)
Experimental: as §1, §2, §3

| Structure (SMILES) | MIC MH 6357 (Mannheimia haemolytica) [µM] | MIC MH 6374 (Mannheimia haemolytica) [µM] | MIC MH 10720 (Mannheimia haemolytica) [µM] | MIC MH 12587 (Mannheimia haemolytica) [µM] | MIC MH 13093 (Mannheimia haemolytica) [µM] | MIC PM 6267 (Pasteurella multocida) [µM] | MIC PM 6391 (Pasteurella multocida) [µM] | MIC PM 10775 (Pasteurella multocida) [µM] | MIC PM 12080 (Pasteurella multocida) [µM] |
| --- | --- | --- | --- | --- | --- | --- | --- | --- | --- |
| C[C@@H](O)[C@H](Nc1ncnc2cc(C#Cc3ccc(CNC4CC4)cc3)ccc12)C(=O)NO [Compound 2] | 0.8 (≈ 0.345 µg/mL) | 1.6 (≈ 0.69 µg/mL) | ≤0.1 | 3.1 (≈ 1.34 µg/mL) | 3.1 (≈ 1.34 µg/mL) | 1.6 (≈ 0.69 µg/mL) | 0.2 (≈ 0.0863 µg/mL) | ≤0.1 | ≤0.1 |
| C[C@@H](O)[C@H](Nc1ncnc2cc(C#Cc3ccc(CNCc4ccccc4)cc3)ccc12)C(=O)NO [Compound 5] | 0.8 (≈ 0.385 µg/mL) | 0.8 (≈ 0.385 µg/mL) | 0.8 (≈ 0.385 µg/mL) | 3.1 (≈ 1.49 µg/mL) | 1.6 (≈ 0.77 µg/mL) | ≤0.1 | 0.2 (≈ 0.0963 µg/mL) | ≤0.1 | 0.8 (≈ 0.385 µg/mL) |
| C[C@@H](O)[C@H](Nc1ncnc2cc(C#Cc3ccc(CNCC(F)(F)F)cc3)ccc12)C(=O)NO [Compound 6] | 0.8 (≈ 0.379 µg/mL) | 0.8 (≈ 0.379 µg/mL) | 0.4 (≈ 0.189 µg/mL) | 1.6 (≈ 0.758 µg/mL) | 0.8 (≈ 0.379 µg/mL) | ≤0.1 | ≤0.1 | ≤0.1 | 0.4 (≈ 0.189 µg/mL) |
| COCCNCc1ccc(C#Cc2ccc3c(N[C@H](C(=O)NO)[C@@H](C)O)nsc3c2)cc1 [Compound 12] | 0.8 (≈ 0.364 µg/mL) | 0.8 (≈ 0.364 µg/mL) | 0.2 (≈ 0.0909 µg/mL) | 3.1 (≈ 1.41 µg/mL) | 1.6 (≈ 0.727 µg/mL) | ≤0.1 | >100 | ≤0.1 | 0.8 (≈ 0.364 µg/mL) |
| C=CCNCc1ccc(C#Cc2ccc3c(N[C@H](C(=O)NO)[C@@H](C)O)ncnc3c2)cc1 [Compound 4] | 1.6 (≈ 0.69 µg/mL) | 3.1 (≈ 1.34 µg/mL) | 1.6 (≈ 0.69 µg/mL) | 6.3 (≈ 2.72 µg/mL) | 3.1 (≈ 1.34 µg/mL) | 0.2 (≈ 0.0863 µg/mL) | 0.4 (≈ 0.173 µg/mL) | ≤0.1 | 1.6 (≈ 0.69 µg/mL) |
| C[C@@H](O)[C@H](Nc1nsc2cc(C#Cc3ccc(CNCC(F)(F)F)cc3)ccc12)C(=O)NO [Compound 15] | 1.6 (≈ 0.766 µg/mL) | 1.6 (≈ 0.766 µg/mL) | ≤0.1 | 3.1 (≈ 1.48 µg/mL) | 1.6 (≈ 0.766 µg/mL) | ≤0.1 | >100 | ≤0.1 | 0.4 (≈ 0.191 µg/mL) |
| COCCNCc1ccc(C#Cc2ccc3c(NC(C(=O)NO)C(C)(C)N)ncnc3c2)cc1 (racemic) [Compound 18] | 25 (≈ 11.6 µg/mL) | 25 (≈ 11.6 µg/mL) | 6.3 (≈ 2.91 µg/mL) | 50 (≈ 23.1 µg/mL) | 25 (≈ 11.6 µg/mL) | 3.1 (≈ 1.43 µg/mL) | 6.3 (≈ 2.91 µg/mL) | 0.8 (≈ 0.37 µg/mL) | 12.5 (≈ 5.78 µg/mL) |
| C=CCNCc1ccc(C#Cc2ccc3c(N[C@H](C(=O)NO)[C@@H](C)O)nsc3c2)cc1 [Compound 11] | 0.4 (≈ 0.175 µg/mL) | 0.4 (≈ 0.175 µg/mL) | ≤0.1 | 1.6 (≈ 0.698 µg/mL) | 0.8 (≈ 0.349 µg/mL) | ≤0.1 | 0.2 (≈ 0.0873 µg/mL) | ≤0.1 | 0.4 (≈ 0.175 µg/mL) |
| C[C@@H](O)[C@H](Nc1nsc2cc(C#Cc3ccc(CNC4CC4)cc3)ccc12)C(=O)NO [Compound 10] | 0.2 (≈ 0.0873 µg/mL) | 0.4 (≈ 0.175 µg/mL) | ≤0.1 | 0.8 (≈ 0.349 µg/mL) | 0.4 (≈ 0.175 µg/mL) | ≤0.1 | >100 | ≤0.1 | ≤0.1 |
| C[C@@H](O)[C@H](Nc1nsc2cc(C#Cc3ccc(CNCc4ccccc4)cc3)ccc12)C(=O)NO [Compound 14] | 0.8 (≈ 0.389 µg/mL) | 0.8 (≈ 0.389 µg/mL) | ≤0.1 | 1.6 (≈ 0.779 µg/mL) | 0.8 (≈ 0.389 µg/mL) | ≤0.1 | 100 (≈ 48.7 µg/mL) | ≤0.1 | 0.2 (≈ 0.0973 µg/mL) |
| COCCNCc1ccc(C#Cc2ccc3c(N[C@H](C(=O)NO)[C@@H](C)O)ncnc3c2)cc1 [Compound 3] | 6.3 (≈ 2.83 µg/mL) | 6.3 (≈ 2.83 µg/mL) | 6.3 (≈ 2.83 µg/mL) | 12.5 (≈ 5.62 µg/mL) | 6.3 (≈ 2.83 µg/mL) | 0.2 (≈ 0.0899 µg/mL) | 0.4 (≈ 0.18 µg/mL) | ≤0.1 | 3.1 (≈ 1.39 µg/mL) |
| C[C@@H](O)[C@H](Nc1ncnc2cc(C#Cc3ccc(CN4CCOCC4)cc3)ccc12)C(=O)NO [Compound 1] | 1.6 (≈ 0.738 µg/mL) | 3.1 (≈ 1.43 µg/mL) | 0.2 (≈ 0.0923 µg/mL) | 3.1 (≈ 1.43 µg/mL) | 3.1 (≈ 1.43 µg/mL) | 1.6 (≈ 0.738 µg/mL) | 0.2 (≈ 0.0923 µg/mL) | ≤0.1 | ≤0.1 |
| C[C@@H](O)[C@H](Nc1nsc2cc(C#Cc3ccc(CN4CCOCC4)cc3)ccc12)C(=O)NO [Compound 13] | 3.1 (≈ 1.45 µg/mL) | 6.3 (≈ 2.94 µg/mL) | 1.6 (≈ 0.747 µg/mL) | 6.3 (≈ 2.94 µg/mL) | 3.1 (≈ 1.45 µg/mL) | ≤0.1 | 100 (≈ 46.7 µg/mL) | ≤0.1 | 1.6 (≈ 0.747 µg/mL) |
